The source of these data is patent publication US20230057130A1, “FORMULATIONS OF 19-NOR C3,3-DISUBSTITUTED C21-N-PYRAZOLYL STEROID AND METHODS OF USE THEREOF” (priority 2020, published 2023).

Values after ≈ are worked out from the molar mass of the structure shown. Values joined by “and” are separate entries in the source; they are usually repeats but may differ in a detail not shown here. Identical values can stand only once. Like-named read-outs stand apart in the source and are kept apart here.

Data set [1] can be described thus: Particle size distribution by laser diffraction (Malvern Mastersizer 2000). The format is physicochemical. The note with it: for Particle Size D10 / Particle Size D50 / Particle Size D90: laser diffraction. From the text:
As used herein, the term “particle size” or “particle size distribution (PSD)” when referring to the compound of formula (I) is a list of values that defines the relative amount, typically by mass or volume, of particles present according to size. The distribution data may be reported as cumulative distributions and/or as density distributions by volume or mass such as D(v, 0.1), D(v, 0.5) and D(v, 0.9). In various embodiments, the particle size of a compound of formula (I) may be measured using laser diffraction techniques (e.g., dispersing particles in a sample and illuminating the sample in a collimated laser-beam by scattering light over a range of angles). The large particles generate a high scattering intensity at relatively narrow angles to the incident beam, while the smaller particles produce a lower intensity signal but at much wider angles. Using an array of detectors, laser-diffraction analyzers record the pattern of scattered light produced by the sample. With the application of an appropriate model of light behavior the particle-size distribution of the sample can be determined from the scattering data, via a deconvolution step.
The particle size distribution of Compound 1 was measured using a laser diffraction method. A sample of Compound 1 was either dispersed in water or wetted and dispersed in 0.2% w/v Tween 80 in water to a final concentration spanning approximately 2.5 to 60 mg/mL. Using a Malvern Mastersizer 2000 with a Hydro 2000S sample dispersion unit the obscuration was adjusted to between 10 and 30%. The stir speed was adjusted to 2250-2500 rpm, pre-measurement delay to approximately 30 s, sample measurement time to around 10-15 s, background measurement time to around 10-15 s and the particle shape assumed to be irregular. The samples were at a concentration between 0.0032-0.0044% vol and had specific surface area between 1.65 and 2.10 m^2/g, a surface weighted mean between 2.87 and 3.64 μm, and a volume weighed mean between 3.62 and 4.67 μm. The measurements were obtained using the Mie scattering model (material refractive index=1.520, dispersant refractive index=1.330, absorption=0.001 or 0.1) with normal sensitivity.

Data set [2] is described as follows: Solubility of the compound of formula (I) in aqueous media. The class given is physicochemical. From the text: The compound of formula (I) belongs in the high permeability, poor solubility drug classification (BCS 2) described in the Biopharmaceutics Classification System (BCS). In the improved widely accepted Developability Classification System (DCS) discussed by Butler and Dressman, the high permeability low solubility category is further divided into two classifications. Specifically, the ratio of the dose to the solubility of the drug in FaSSIF can be used to predict the extent of human absorption. Class 2a describes compounds that have good permeability and poor solubility with a smaller dose to solubility ratio. Class 2b describes compounds that have a higher dose to solubility ratio and likely will be incompletely absorbed unless the drug is formulated in an already solubilized form, and therefore might present a major challenge to the formulator. […] That is, even for a dose of 10 mg about only 1.2% of the dose of the drug may dissolve in a glass of water or FaSSIF. For Class 2b compounds the system predicts that particle reduction should have no impact on bioavailability. Martinez and Amidon offer: “In the case of solubility-limited absorption particle size exerts minimal effect on the fraction of drug absorbed. In this situation, fraction of drug absorbed can only be improved by enhancing drug solubility (e.g., via inclusion of surfactants in the drug formulation.) Conversely particle size exerts its greatest effect when solubility is not a problem.” (Martinez and Amidon; J. Clin. Pharmacol.; 2002; 42; 620-643). In light of the very large […] for the compound of formula (I), oral absorption of the compound of formula (I) is solubility limited, and reduction of particle size should not affect its bioavailability.

Data set [3] can be described thus: Pharmacokinetic profile of Form C of Compound 1 (micronized and un-micronized) in rat, oral gavage. The format is in vivo. The note with it: male Sprague-Dawley rats, oral gavage 15 mg/kg; for AUClast / Cmax / Tmax: suspended in 2% aqueous PVP-VA, 15 mg/kg. The method, then: Two groups, each with three male Sprague-Dawley rats, received an oral gavage dose of Compound 1 (un-micronized Form C or micronized Form C) suspended in 2% aqueous PVP-VA at a concentration and volume intended to achieve a target dose level of 15 mg/kg.
Serial blood samples were collected from each animal at 0.25, 0.5, 1, 2, 4, 6, 8 and 24 hours after dosing. Blood samples, which were collected into tubes containing K2EDTA, were processed for plasma. Plasma samples were analyzed for Compound 1 by LC-MS/MS. Non-compartmental pharmacokinetic parameter estimates were calculated from the plasma concentration-time data for each animal. […] In Table 8 the subscripts to AUC last and inf refer to that AUC to the last sampling time point and extrapolated to infinite time, respectively.

The mark [4] stands for this setting: lot used for 8 kg blend batch, 20 mg dose strength.
Setting [5] is: lot used for 12 kg blend batch, 30 mg dose strength.
Where [6] appears, read: lot used for 34.7 kg blend batch, 20 mg dose strength.
The mark [7] stands for this setting: lot used for 52 kg blend batch, 30 mg dose strength.

In the case of `C[C@@]1(O)CC[C@H]2[C@H](CC[C@@H]3[C@@H]2CC[C@]2(C)[C@@H](C(=O)Cn4cc(C#N)cn4)CC[C@@H]32)C1` [Micronized Form C of Compound 1b], in data set [1], the “Particle Size D10” value came to 0.8 μm, the “Particle Size D50” value is given as 2.1 μm and the “Particle Size D90” value is recorded as 5.2 μm.

As for `C[C@@]1(O)CC[C@H]2[C@H](CC[C@@H]3[C@@H]2CC[C@]2(C)[C@@H](C(=O)Cn4cc(C#N)cn4)CC[C@@H]32)C1` [Un-micronized Form C of Compound 1b], in data set [1], the “Particle Size D10” value was 3.2 μm, the “Particle Size D50” value is 14.7 μm and the “Particle Size D90” value came to 33.6 μm.

For the compound `C[C@@]1(O)CC[C@H]2[C@H](CC[C@@H]3[C@@H]2CC[C@]2(C)[C@@H](C(=O)Cn4cc(C#N)cn4)CC[C@@H]32)C1` [Compound 1, 1-(2-((3R,5R,8R,9R,10S,13S,14S,17S)-3-hydroxy-3,13-dimethylhexadecahydro-1H-cyclopenta[a]phenanthren-17-yl)-2-oxoethyl)-1H-pyrazole-4-carbonitrile], the “solubility in aqueous media” value in data set [2] is on record as “practically insoluble”. Further, the “ratio of the dose to solubility in FaSSIF” value in data set [2] (10 mg dose) is “greater than 10,000”; in data set [2] (20 mg dose) it was > 20,000; in data set [2] (30 mg dose) it was > 30,000; in data set [2] (90 mg dose) it was > 90,000; in data set [2] (100 mg dose), > 100,000. Also, the “part of the dose that may dissolve in a glass of water or FaSSIF” value in data set [2] (dose of 10 mg) was ~1.2%. For the same compound, the “Biopharmaceutics Classification System (BCS) classification” value in data set [2] (high permeability, poor solubility) is recorded as “BCS 2”. Also, the solubility in data set [2] (water) lay within 0.8 to 3 µg/mL (≈ 1.95 to 7.32 µM).

For the compound `C[C@@]1(O)CC[C@H]2[C@H](CC[C@@H]3[C@@H]2CC[C@]2(C)[C@@H](C(=O)Cn4cc(C#N)cn4)CC[C@@H]32)C1` [Un-micronized Form C of Compound 1a], in data set [1], the “Particle Size D10” value is recorded as 3.1 μm, the “Particle Size D50” value turned out to be 11.8 μm and the “Particle Size D90” value was determined as 27.1 μm.

Regarding `C[C@@]1(O)CC[C@H]2[C@H](CC[C@@H]3[C@@H]2CC[C@]2(C)[C@@H](C(=O)Cn4cc(C#N)cn4)CC[C@@H]32)C1` [Micronized Form C of Compound 1], in data set [1], the “Particle Size D50” value is 3.5 μm and 3.2 μm and 4.1 μm and 3.7 μm; the “Particle Size D90” value was 6.6 μm and 6.1 μm and 8.0 μm and 8.9 μm. In data set [1] (setting [4]), the “Particle Size Distribution D10” value was 1.7, the “Particle Size Distribution D50” value amounted to 3.2 and the “Particle Size Distribution D90” value was determined as 6.1. Moreover, in data set [1] (setting [5]), the “Particle Size Distribution D10” value was found to be 1.7, the “Particle Size Distribution D50” value came out at 3.2 and the “Particle Size Distribution D90” value worked out at 6.1. In data set [1] (setting [6]), the “Particle Size Distribution D10” value came out at 1.8, the “Particle Size Distribution D50” value is reported as 3.3 and the “Particle Size Distribution D90” value came out at 6.5. In data set [1] (setting [7]), the “Particle Size Distribution D10” value came to 2.1, the “Particle Size Distribution D50” value came out at 4.1 and the “Particle Size Distribution D90” value is on record as 8.0. For the same compound, in data set [3], the AUClast was 3647 ng·h/mL, the maximum concentration (Cmax) turned out to be 308 ng/mL and the Tmax stood at 6.00 h.

`C[C@@]1(O)CC[C@H]2[C@H](CC[C@@H]3[C@@H]2CC[C@]2(C)[C@@H](C(=O)Cn4cc(C#N)cn4)CC[C@@H]32)C1` [Micronized Form C of Compound 1d]: in data set [1], the “Particle Size D10” value stood at 1.0 μm, the “Particle Size D50” value is reported as 2.4 μm and the “Particle Size D90” value was 4.6 μm.

`C[C@@]1(O)CC[C@H]2[C@H](CC[C@@H]3[C@@H]2CC[C@]2(C)[C@@H](C(=O)Cn4cc(C#N)cn4)CC[C@@H]32)C1` [Micronized Form A of Compound 1]: in data set [1], the “Particle Size D10” value is listed as 1.5 μm, the “Particle Size D50” value was determined as 4.2 μm and the “Particle Size D90” value is reported as 11.1 μm.

With `C[C@@]1(O)CC[C@H]2[C@H](CC[C@@H]3[C@@H]2CC[C@]2(C)[C@@H](C(=O)Cn4cc(C#N)cn4)CC[C@@H]32)C1` [Un-micronized Form C of Compound 1], in data set [3], the AUClast stood at 979 ng·h/mL and the Cmax came out at 83.6 ng/mL. Further, in data set [3] (male, Sprague-Dawley, rat, plasma, po, read-out: Tmax), the Tmax came out at 6.67 h. For the same compound, in data set [3] (rat, plasma, extrapolated to infinite time), the AUC(0-inf) was 854 ng·h/mL.

Turning to `C[C@@]1(O)CC[C@H]2[C@H](CC[C@@H]3[C@@H]2CC[C@]2(C)[C@@H](C(=O)Cn4cc(C#N)cn4)CC[C@@H]32)C1` [Un-micronized Form C of Compound 1c], in data set [1], the “Particle Size D10” value amounted to 3.6 μm, the “Particle Size D50” value turned out to be 16.0 μm and the “Particle Size D90” value was found to be 35.5 μm.

Take `C[C@@]1(O)CC[C@H]2[C@H](CC[C@@H]3[C@@H]2CC[C@]2(C)[C@@H](C(=O)Cn4cc(C#N)cn4)CC[C@@H]32)C1` [Un-micronized Form C of Compound 1d]: in data set [1], the “Particle Size D10” value is 5.6 μm, the “Particle Size D50” value was 16.2 μm and the “Particle Size D90” value was 37.7 μm.

`C[C@@]1(O)CC[C@H]2[C@H](CC[C@@H]3[C@@H]2CC[C@]2(C)[C@@H](C(=O)Cn4cc(C#N)cn4)CC[C@@H]32)C1` [Micronized Form C of Compound 1c]: in data set [1], the “Particle Size D10” value is recorded as 1.1 μm, the “Particle Size D50” value amounted to 2.7 μm and the “Particle Size D90” value is on record as 5.4 μm.

Turning to `C[C@@]1(O)CC[C@H]2[C@H](CC[C@@H]3[C@@H]2CC[C@]2(C)[C@@H](C(=O)Cn4cc(C#N)cn4)CC[C@@H]32)C1` [Micronized Form C of Compound 1a], in data set [1], the “Particle Size D10” value stood at 0.9 μm, the “Particle Size D50” value is on record as 2.4 μm and the “Particle Size D90” value is listed as 6.1 μm.

By solubility is commonly meant the concentration that dissolves in the medium under given conditions. Low readings indicate a poorly soluble substance, high ones a readily soluble substance. Usually Cmax stands for the peak of the concentration-time curve. The Tmax is the time at which the peak concentration occurs. By AUC(0-inf) is commonly meant the area under the concentration-time curve extrapolated to infinity.
